Laboratory results: patent US20080262008A1, “CRYSTALLINE FORMS AND POLYMORPHS OF N-(3-(DIMETHYLAMINO)PROPYL)-4-(4-(3-FLUORO-4-METHOXYPHENYL) PYRIMIDIN-2-YLAMINO) BENZENESULFONAMIDE AS SUCCINATE SALTS” (Wyeth, priority 2007, published 2008)

Experiments:
[1] = water solubility; assay type: physicochemical
[2] = solubility of the free base in solvents; assay type: physicochemical; details: free base form
Protocol: For example, acetone is needed to dissolve the free base at 50° C. […] HCl, phosphoric acid, tartaric acid, acetic acid, D-glucoronic acid and succinic acid were used to prepare pharmaceutically acceptable salts of compound 3. One crystalline form of compound 3 as a mono-succinate salt and five crystalline polymorphs of compound 3 as a hemi-succinate salt are provided in the Examples.

Solubility in water ([1]; free base, thermogravimeteric method) | solubility in THF, DMSO and DMF [2] | solubility in group 3 solvents, including water [2] | water solubility (stated in words) [1] | Structure (SMILES)
not detectable | high | low | – | COc1ccc(-c2ccnc(Nc3ccc(S(=O)(=O)NCCCN(C)C)cc3)n2)cc1F [Compound 3, N-(3-(dimethylamino)propyl)-4-(4-(3-fluoro-4-methoxyphenyl)pyrimidin-2-ylamino)benzenesulfonamide]
– | – | – | water soluble | COc1ccc(-c2ccnc(Nc3ccc(S(=O)(=O)NCCCN(C)C)cc3)n2)cc1F.O=C(O)CCC(=O)O [Example 1, Mono-Succinate Salt of N-(3-(dimethylamino)propyl)-4-(4-(3-fluoro-4-methoxyphenyl)pyrimidin-2-ylamino)benzenesulfonamide]
